Measured values reported in patent US20230123334A1, “AMINO LIPID COMPOUND, PREPARATION METHOD THEREFOR, AND APPLICATION THEREOF” (SHENZHEN SHENXIN BIOTECHNOLOGY CO., LTD., priority 2020, published 2023).

Tested on: HEK293 cells
Assay: Preliminary screening as DNA vectors, GFP transfection of HEK293 cells
Format: cell-based
Conditions: amino lipid/DOPE liposome with 75 ng plasmid DNA (psin-EGFP-IRES-Puro); number of GFP-expressing cells divided by total nuclei (Hoechst)
Summary of the method: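 Lipid + DOPE liposomes (NaOAc, pH 5.6) complexed w/ 75 ng psin-EGFP-IRES-Puro, 30 min RT; added to 3-5×10^4 HEK293/well, 37° C. Hoechst 0.2 μg/mL at 20-24 h, imaged after further 20-24 h. Efficiency = GFP+ cells / total nuclei.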

Row | Compound | Absolute DNA transfection efficiency in HEK293 cells
1 | CCCCCCCCCCCCCCCNc1nc(NCC2CCN(C)CC2)nc(SCCCCCC)n1 [S6N15 D10] | 31.1%
2 | CCCCCCCCCCCCCCSc1nc(NCCN2CCOCC2)nc(SCCCCCCC)n1 [S7S14 D2] | 15.9%
3 | CCCCCCCCCCCNc1nc(NCCN2CCN(C)CC2)nc(SCCCCCC)n1 [S6N11 D5] | 17.5%
4 | CCCCCCCCCCCCN(CCCCCCCCCCCC)c1nc(NCCN(C)C)nc(SCCCCCCCCCC)n1 [S10^2N12 D1] | 3.2%
5 | CCCCCCCCNc1nc(NCCN(C)C)nc(SCCCCCC)n1 [S6N8 D1] | 0.2%
6 | CCCCCCCCCSc1nc(NCCCCCCCC)nc(NCCN(CC)CC)n1 [S9N8 D7] | 15.7%
7 | CCCCCCCCCCCSc1nc(NCCCCCCC)nc(NCCN(C)C)n1 [S11N7 D1] | 27.6%
8 | CCCCCCCCCCCCN(CCCCCCCCCCCC)c1nc(NCCN2CCOCC2)nc(SCCCCCCCC)n1 [S8^2N12 D2] | 0.0%
9 | CCCCCCCCCCCCN(CCCCCCCCCCCC)c1nc(NCCN(CC)CC)nc(SCCCCCCCCCCC)n1 [S11^2N12 D7] | 0.1%
10 | CCCCCCCCCCCCCCCCCCSc1nc(NCCN(CC)CC)nc(SCCCCCC)n1 [S6S18 D7] | 6.4%
11 | CCCCCCCCCCCCCCCCCCSc1nc(NCCCCCC)nc(NCCN2CCCC2)n1 [S18N6 D3] | 22.1%
12 | CCCCCCCCCCCNc1nc(NCCN2CCCC2)nc(SCCCCCCCCC)n1 [S9N11 D3] | 43.4%
13 | CCCCCCCCCCCCCCSc1nc(NCCN(C)C)nc(SCCCCCCC)n1 [S7S14 D1] | 7.7%
14 | CCCCCCCCCCCCN(CCCCCCCCCCCC)c1nc(NCCCN2CCOCC2)nc(SCCCCCCCCC)n1 [S9^2N12 D8] | 0.0%
15 | CCCCCCCCCCCCN(CCCCCCCCCCCC)c1nc(NCCN(CC)CC)nc(SCCCCCCC)n1 [S7^2N12 D7] | 0.2%
16 | CCCCCCSc1nc(NCCN2CCN(C)CC2)nc(SCCCCCC)n1 [S6S6 D5] | 9.1%
17 | CCCCCCCCCCCCCCCCNc1nc(NCCN2CCCCC2)nc(SCCCCCCCC)n1 [S8N16 D4] | 1.0%
18 | CCCCCCCCCCCCCCCSc1nc(NCCCCCCCCCCC)nc(NCCN2CCOCC2)n1 [S15N11 D2] | 19.3%
19 | CCCCCCCCCCCCCCCCSc1nc(NCCCCCCCCCCC)nc(NCCN(C)C)n1 [S16N11 D1] | 17.2%
20 | CCCCCCCCCCCCCCCSc1nc(NCCCCCCCCCCC)nc(NCCCN2CCOCC2)n1 [S15N11 D8] | 6.1%
21 | CCCCCCCCCCCCCCSc1nc(NCCCCCCC)nc(NCCN(C)C)n1 [S14N7 D1] | 12.5%
22 | CCCCCCCCCCCCCCCSc1nc(NCCCN(C)C)nc(SCCCCCC)n1 [S6S15 D6] | 36.4%
23 | CCCCCCSc1nc(NCCCN2CCOCC2)nc(SCCCCCC)n1 [S6S6 D8] | 0.8%
24 | CCCCCCCCCCCSc1nc(NCCN(C)C)nc(SCCCCCCC)n1 [S7S11 D1] | 10.8%

Row | Compound | Absolute DNA transfection efficiency in HEK293 cells
25 | CCCCCCCCCCCCCCCCCCNc1nc(NCCN2CCCC2)nc(SCCCCCCCCCCCCCCC)n1 [S15N18 D3] | 0.7%
26 | CCCCCCCCCCCSc1nc(NCCCCCCCCC)nc(NCCCN2CCN(C)CC2)n1 [S11N9 D9] | 22.4%
27 | CCCCCCCCCCCCCCCCCCNc1nc(NCCN(C)C)nc(SCCCCCCCCCCCCCCC)n1 [S15N18 D1] | 0.6%
28 | CCCCCCCCCCCCNc1nc(NCCN2CCCCC2)nc(SCCCCCC)n1 [S6N12 D4] | 2.0%
29 | CCCCCCCCCCCCSc1nc(NCCN(C)C)nc(N(CCCCCCCCCCCC)CCCCCCCCCCCC)n1 [S12^2N12 D1] | 0.0%
30 | CCCCCCCCCNc1nc(NCCN2CCOCC2)nc(SCCCCCCC)n1 [S7N9 D2] | 13.9%
31 | CCCCCCCCCCCCCCCNc1nc(NCC2CCN(C)CC2)nc(SCCCCCCCCCCC)n1 [S11N15 D10] | 7.0%
32 | CCCCCCCCCCCCSc1nc(NCCN2CCOCC2)nc(SCCCCCC)n1 [S6S12 D2] | 5.0%
33 | CCCCCCCCCCCNc1nc(NCCN2CCCC2)nc(SCCCCCCCC)n1 [S8N11 D3] | 52.0%
34 | CCCCCCCCCCSc1nc(NCCCCCC)nc(NCCN2CCCCC2)n1 [S10N6 D4] | 5.7%
35 | CCCCCCCCCCSc1nc(NCCCCCCC)nc(NCCN(C)C)n1 [S10N7 D1] | 8.2%
36 | CCCCCCCCCCCCCNc1nc(NCCN2CCCC2)nc(SCCCCCCCCCCC)n1 [S11N13 D3] | 17.5%
37 | CCCCCCCCCCCCNc1nc(NCCN(CC)CC)nc(SCCCCCCCCCC)n1 [S10N12 D7] | 5.9%
38 | CCCCCCCCCCCCCCCCSc1nc(NCCCCCCCC)nc(NCCN2CCCCC2)n1 [S16N8 D4] | 8.4%
39 | CCCCCCCCCCCCCCCSc1nc(NCCCCCCCCCCCC)nc(NCCCN2CCN(C)CC2)n1 [S15N12 D9] | 3.3%
40 | CCCCCCCCCCCCCCCCNc1nc(NCC2CCN(C)CC2)nc(SCCCCCCCCCCCC)n1 [S12N16 D10] | 2.4%
41 | CCCCCCCCCCCCCCCCSc1nc(NCCCCCCCCCCCC)nc(NCCCN2CCOCC2)n1 [S16N12 D8] | 0.0%
42 | CCCCCCCCCCCCCCCNc1nc(NCCN(CC)CC)nc(SCCCCCCCCCCC)n1 [S11N15 D7] | 5.2%
43 | CCCCCCCCCCCCCCCCSc1nc(NCCCN2CCOCC2)nc(N(CCCCCCCCCCCC)CCCCCCCCCCCC)n1 [S16^2N12 D8] | 0.0%
44 | CCCCCCCCCCCCCCCCCCSc1nc(NCCCCCCCCC)nc(NCCCN2CCN(C)CC2)n1 [S18N9 D9] | 0.0%
45 | CCCCCCCCCCCCCCCCCCSc1nc(NCCN2CCOCC2)nc(N(CCCCCCCCCCCC)CCCCCCCCCCCC)n1 [S18^2N12 D2] | 0.0%
46 | CCCCCCCCCCCCCCSc1nc(NCCN2CCCCC2)nc(N(CCCCCCCCCCCC)CCCCCCCCCCCC)n1 [S14^2N12 D4] | 0.0%
47 | CCCCCCCCCCCCCCCCSc1nc(NCCCCCCCC)nc(NCCN(CC)CC)n1 [S16N8 D7] | 4.6%
48 | CCCCCCCCCCCCCCCCCCSc1nc(NCCCCCCC)nc(NCCCN(C)C)n1 [S18N7 D6] | 20.7%

Row | Compound | Absolute DNA transfection efficiency in HEK293 cells
49 | CCCCCCCCSc1nc(NCCCN2CCN(C)CC2)nc(SCCCCCC)n1 [S6S8 D9] | 10.0%
50 | CCCCCCCCCSc1nc(NCCCCCC)nc(NCCN2CCCCC2)n1 [S9N6 D4] | 20.7%
51 | CCCCCCCCCCCSc1nc(NCCCCCCC)nc(NCCN2CCOCC2)n1 [S11N7 D2] | 11.7%
52 | CCCCCCCCCCCCCCSc1nc(NCCCCCCCCCCCC)nc(NCCN2CCN(C)CC2)n1 [S14N12 D5] | 9.8%
53 | CCCCCCCCCCCCCCCCNc1nc(NCC2CCN(C)CC2)nc(SCCCCCCCCCC)n1 [S10N16 D10] | 8.7%
54 | CCCCCCCCCCCCCCCCSc1nc(NCCCCCC)nc(NCCCN(C)C)n1 [S16N6 D6] | 24.1%
55 | CCCCCCCCSc1nc(NCCCCCC)nc(NCCCN2CCOCC2)n1 [S8N6 D8] | 0.0%
56 | CCCCCCCCCCCCCCCCSc1nc(NCCCCCCCCCCCC)nc(NCCCN(C)C)n1 [S16N12 D6] | 2.7%
57 | CCCCCCCCCCCNc1nc(NCCCN2CCOCC2)nc(SCCCCCCCCCC)n1 [S10N11 D8] | 3.8%
58 | CCCCCCCCCCCSc1nc(NCCN2CCOCC2)nc(SCCCCCCCC)n1 [S8S11 D2] | 17.9%
59 | CCCCCCCCCCCCCNc1nc(NCCN2CCCC2)nc(SCCCCCCCCC)n1 [S9N13 D3] | 31.6%
60 | CCCCCCCCCCCCCCCCCCSc1nc(NCCCCCCCCCCCCCCCC)nc(NCCN(C)C)n1 [S18N16 D1] | 0.0%
61 | CCCCCCCCCCCCCCSc1nc(NCCCCCCCC)nc(NCC2CCN(C)CC2)n1 [S14N8 D10] | 26.2%
62 | CCCCCCCCCCCCCCCCCCSc1nc(NCCCN2CCN(C)CC2)nc(SCCCCCC)n1 [S6S18 D9] | 8.7%
63 | CCCCCCCCCCCCCNc1nc(NCCN2CCCCC2)nc(SCCCCCCC)n1 [S7N13 D4] | 6.4%
64 | CCCCCCCCCCCCN(CCCCCCCCCCCC)c1nc(NCCCN2CCN(C)CC2)nc(SCCCCCCCCC)n1 [S9^2N12 D9] | 0.6%
65 | CCCCCCCCCCCCCCCCCCNc1nc(NCCN2CCOCC2)nc(SCCCCCC)n1 [S6N18 D2] | 2.5%
66 | CCCCCCCCCCCCCCCCCCSc1nc(NCCCCCCCCC)nc(NCCN(CC)CC)n1 [S18N9 D7] | 6.7%
67 | CCCCCCCCCCCCCCCCNc1nc(NCCN2CCOCC2)nc(SCCCCCCCCCCCCCCC)n1 [S15N16 D2] | 0.0%
68 | CCCCCCCCCCCCCCCCCCNc1nc(NCCCN2CCOCC2)nc(SCCCCCCCCCCCCCC)n1 [S14N18 D8] | 0.1%
69 | CCCCCCCCCSc1nc(NCCN2CCN(C)CC2)nc(SCCCCCCCC)n1 [S8S9 D5] | 5.8%
70 | CCCCCCCCCCCCSc1nc(NCC2CCN(C)CC2)nc(SCCCCCC)n1 [S6S12 D10] | 24.4%
71 | CCCCCCCCCCCCCCSc1nc(NCCCCCC)nc(NCCN2CCCC2)n1 [S14N6 D3] | 23.6%
